Laboratory results reported in PubChem BioAssay (NCI).
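Step 1: Grow cells in 96-well plates. Step 2: Expose to compound for 48 hours at 5 concentrations. Step 3: Interpolate endpoints linearly; if unreached, use highest concentration. At the GI50, growth is halved. TGI: total growth inhibition.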

Key:
Experiment in all cases: NCI-60 cell line screen, 48 h
[1] = tested on: 786-0 renal
[2] = tested on: A498 renal
[3] = tested on: A549 NSCLC
[4] = tested on: ACHN renal
[5] = tested on: BT-549 breast
[6] = tested on: CAKI-1 renal
[7] = tested on: COLO 205 colon
[8] = tested on: DU-145 prostate
[9] = tested on: EKVX NSCLC
[10] = tested on: HCT-116 colon
[11] = tested on: HCT-15 colon
[12] = tested on: HL-60(TB) leukemia
[13] = tested on: HOP-62 NSCLC
[14] = tested on: HOP-92 NSCLC
[15] = tested on: HS 578T breast
[16] = tested on: HT29 colon
[17] = tested on: IGROV1 ovarian
[18] = tested on: K-562 leukemia
[19] = tested on: KM12 colon
[20] = tested on: LOX IMVI melanoma
[21] = tested on: M14 melanoma
[22] = tested on: MCF7 breast
[23] = tested on: MDA-MB-435
[24] = tested on: MOLT-4 leukemia
[25] = tested on: NCI-H226 lung
[26] = tested on: NCI-H23 lung
[27] = tested on: NCI-H460 lung
[28] = tested on: NCI-H522 lung
[29] = tested on: NCI/ADR-RES ovarian
[30] = tested on: OVCAR-3 ovarian
[31] = tested on: OVCAR-4 ovarian
[32] = tested on: OVCAR-5 ovarian
[33] = tested on: OVCAR-8 ovarian
[34] = tested on: PC-3 prostate
[35] = tested on: RPMI-8226 leukemia
[36] = tested on: RXF 393 renal
[37] = tested on: SF-268 CNS
[38] = tested on: SF-295 CNS
[39] = tested on: SF-539 CNS
[40] = tested on: SK-MEL-2 melanoma
[41] = tested on: SK-MEL-28 melanoma
[42] = tested on: SK-MEL-5 melanoma
[43] = tested on: SK-OV-3 ovarian
[44] = tested on: SN12C renal
[45] = tested on: SNB-19 CNS
[46] = tested on: SNB-75 CNS
[47] = tested on: SR leukemia
[48] = tested on: SW-620 colon
[49] = tested on: T-47D breast
[50] = tested on: TK-10 renal
[51] = tested on: U251 CNS
[52] = tested on: UACC-257 melanoma
[53] = tested on: UACC-62 melanoma
[54] = tested on: UO-31 renal

How did the GI50 [1] turn out when COc1ccc2c(c1OC)CO[C@@H]2[C@H]1c2c(c(Br)c3c(c2OC)OCO3)CCN1C was run?
Its GI50 is 4.66 µM.

What about the TGI [1] of the same compound?
The TGI was 19.3 µM.

What about the GI50 [2] of the same compound?
Its GI50 is 2.27 µM.

And the TGI [2]?
Its TGI is 4.43 µM.

What about the GI50 [3] of the same compound?
Its GI50 is 7.53 µM.

What about the TGI [3] of the same compound?
Its TGI is over 100 µM.

What about the GI50 [4] of the same compound?
Its GI50 is 6.63 µM.

What about the TGI [4] of the same compound?
The TGI was over 100 µM.

What about the GI50 [5] of the same compound?
Its GI50 is 6.8 µM.

What about the TGI [5] of the same compound?
Its TGI is 35.9 µM.

What about the GI50 [6] of the same compound?
Its GI50 is 4.17 µM.

What about the TGI [6] of the same compound?
The TGI was 22.1 µM.

What about the GI50 [7] of the same compound?
The GI50 was 31.4 µM.

What about the TGI [7] of the same compound?
Its TGI is 85.4 µM.

And the GI50 [8]?
Its GI50 is 6.96 µM.

And the TGI [8]?
The TGI was over 100 µM.

What about the GI50 [9] of the same compound?
Its GI50 is 3.95 µM.

What about the TGI [9] of the same compound?
Its TGI is 34.8 µM.

And the GI50 [10]?
The GI50 was 5.09 µM.

And the TGI [10]?
Its TGI is 22.6 µM.

What about the GI50 [11] of the same compound?
The GI50 was 2.69 µM.

And the TGI [11]?
The TGI was over 100 µM.

What about the GI50 [12] of the same compound?
Its GI50 is 1.89 µM.

And the TGI [12]?
Its TGI is over 100 µM.

What about the GI50 [13] of the same compound?
The GI50 was 5.88 µM.

And the TGI [13]?
Its TGI is 32.7 µM.

And the GI50 [14]?
The GI50 was 6.74 µM.

And the TGI [14]?
Its TGI is 57.6 µM.

And the GI50 [15]?
The GI50 was 3.08 µM.

And the TGI [15]?
Its TGI is 12.7 µM.

What about the GI50 [16] of the same compound?
The GI50 was 30.7 µM.

And the TGI [16]?
Its TGI is over 100 µM.

What about the GI50 [17] of the same compound?
The GI50 was 8.73 µM.

And the TGI [17]?
Its TGI is over 100 µM.

What about the GI50 [18] of the same compound?
The GI50 was 2.37 µM.

And the TGI [18]?
Its TGI is over 100 µM.

What about the GI50 [19] of the same compound?
The GI50 was 4.26 µM.

What about the TGI [19] of the same compound?
Its TGI is 23.8 µM.

What about the GI50 [20] of the same compound?
Its GI50 is 2.67 µM.

What about the TGI [20] of the same compound?
The TGI was 12.2 µM.

And the GI50 [21]?
The GI50 was 3.47 µM.

And the TGI [21]?
Its TGI is 9.74 µM.

And the GI50 [22]?
Its GI50 is 3.19 µM.

And the TGI [22]?
Its TGI is 29.3 µM.

And the GI50 [23]?
Its GI50 is 3.07 µM.

And the TGI [23]?
Its TGI is 8.69 µM.

What about the GI50 [24] of the same compound?
Its GI50 is 3.55 µM.

What about the TGI [24] of the same compound?
Its TGI is over 100 µM.

And the GI50 [25]?
Its GI50 is 5.16 µM.

What about the TGI [25] of the same compound?
Its TGI is 32.3 µM.

What about the GI50 [26] of the same compound?
Its GI50 is 4.1 µM.

What about the TGI [26] of the same compound?
Its TGI is 22 µM.

What about the GI50 [27] of the same compound?
The GI50 was 3.03 µM.

And the TGI [27]?
Its TGI is 14 µM.

And the GI50 [28]?
Its GI50 is 3.41 µM.

What about the TGI [28] of the same compound?
The TGI was 23.1 µM.

What about the GI50 [29] of the same compound?
The GI50 was 4.45 µM.

And the TGI [29]?
Its TGI is over 100 µM.

What about the GI50 [30] of the same compound?
The GI50 was 3.91 µM.

And the TGI [30]?
The TGI was 13.6 µM.

What about the GI50 [31] of the same compound?
Its GI50 is over 100 µM.

And the TGI [31]?
The TGI was over 100 µM.

What about the GI50 [32] of the same compound?
The GI50 was 18.6 µM.

And the TGI [32]?
Its TGI is over 100 µM.

And the GI50 [33]?
The GI50 was 7.3 µM.

What about the TGI [33] of the same compound?
The TGI was over 100 µM.

What about the GI50 [34] of the same compound?
Its GI50 is 8.74 µM.

And the TGI [34]?
Its TGI is over 100 µM.

And the GI50 [35]?
The GI50 was 4.24 µM.

And the TGI [35]?
Its TGI is over 100 µM.

What about the GI50 [36] of the same compound?
Its GI50 is 4.9 µM.

What about the TGI [36] of the same compound?
Its TGI is 29.8 µM.

And the GI50 [37]?
Its GI50 is 5.16 µM.

What about the TGI [37] of the same compound?
The TGI was 25.5 µM.

What about the GI50 [38] of the same compound?
Its GI50 is 2.84 µM.

And the TGI [38]?
Its TGI is 7.65 µM.

What about the GI50 [39] of the same compound?
Its GI50 is 2.83 µM.

What about the TGI [39] of the same compound?
Its TGI is 9.3 µM.

What about the GI50 [40] of the same compound?
Its GI50 is 5.77 µM.

What about the TGI [40] of the same compound?
The TGI was 43.7 µM.

And the GI50 [41]?
Its GI50 is 36.6 µM.

And the TGI [41]?
The TGI was over 100 µM.

What about the GI50 [42] of the same compound?
The GI50 was 2.42 µM.

What about the TGI [42] of the same compound?
Its TGI is 11.8 µM.

What about the GI50 [43] of the same compound?
The GI50 was 61.2 µM.

What about the TGI [43] of the same compound?
Its TGI is over 100 µM.

And the GI50 [44]?
The GI50 was 3.98 µM.

And the TGI [44]?
Its TGI is 16.8 µM.

What about the GI50 [45] of the same compound?
Its GI50 is 39.2 µM.

What about the TGI [45] of the same compound?
The TGI was over 100 µM.

And the GI50 [46]?
The GI50 was 40.2 µM.

What about the TGI [46] of the same compound?
The TGI was over 100 µM.

And the GI50 [47]?
The GI50 was 1.01 µM.

What about the TGI [47] of the same compound?
Its TGI is over 100 µM.

What about the GI50 [48] of the same compound?
Its GI50 is 3.57 µM.

What about the TGI [48] of the same compound?
Its TGI is over 100 µM.

What about the GI50 [49] of the same compound?
Its GI50 is 66.8 µM.

What about the TGI [49] of the same compound?
Its TGI is over 100 µM.

And the GI50 [50]?
Its GI50 is 4.42 µM.

And the TGI [50]?
The TGI was 21.6 µM.

What about the GI50 [51] of the same compound?
Its GI50 is 4.59 µM.

And the TGI [51]?
Its TGI is 70.6 µM.

And the GI50 [52]?
Its GI50 is 4.28 µM.

What about the TGI [52] of the same compound?
Its TGI is 19.9 µM.

What about the GI50 [53] of the same compound?
The GI50 was 2.07 µM.

And the TGI [53]?
The TGI was 9.2 µM.

What about the GI50 [54] of the same compound?
Its GI50 is 10.6 µM.

What about the TGI [54] of the same compound?
Its TGI is over 100 µM.
